Experiments:
in vitro = conditions: chlorocebus sabaeus, Vero cells
Chikungunya virus = assay: microbe, parasite or virus in culture

CCNc1nc(C)cc(N2CCN(C(=O)c3ccc(Cl)cc3)CC2)n1
CC50 at 120 h (in vitro): 202 µM | EC50 (Chikungunya virus): 32 µM | EC90 (Chikungunya virus): 108 µM

From ChEMBL document CHEMBL4613309, “Identification of 2-(4-(Phenylsulfonyl)piperazine-1-yl)pyrimidine Analogues as Novel Inhibitors of Chikungunya Virus” (ACS Med Chem Lett, 2020)
